These results are taken from ChEMBL document CHEMBL1201862, “PubChem BioAssay data set” (2004).

Usually GI50 stands for the concentration that inhibits growth by half.

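A five-concentration, 48-hour dose response in 96-well plates underlies each endpoint, interpolated linearly between surrounding concentrations. GI50 = concentration required for 50% inhibition of growth.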 Calls of active or inactive are those of the source. Rule as the data show it: active = GI50 up to about 1.1 µM and inactive = higher.

Test systems include HOP-62; NCI-H460; U-251; RXF 393; K562; OVCAR-4; MDA-MB-231; MDA-N; BT-549; SR; UO-31; M14; UACC-257; SN12C; HCC 2998; SF-539; NCI-H23; SK-MEL-28; SF-268; SNB-75.
Holding throughout (assay): DTP human tumour cell line panel, 48 h

Consider `OC1COC(OCc2ccccc2)C(O)C1O` (centres undefined), for which the GI50 with HOP-62, in the test on NCI-H460, in the test on U-251, in the test on RXF 393, with K562 and in the test on OVCAR-4 was > 100 µM (inactive) in each case. Also, the GI50 in the test with MDA-MB-231, in the test with MDA-N, in the test with BT-549, with SR, in the test on UO-31 and with M14 was > 100 µM (inactive) throughout. The GI50 with UACC-257, in the test on SN12C, in the test with HCC 2998, in the test on SF-539, with NCI-H23 and in the test with SK-MEL-28 was > 100 µM (inactive) in each case. Moreover, in the test with SF-268, the GI50 was > 100 µM (inactive).

In the case of `CCN1C/C(=C\c2ccc(Cl)cc2)c2[nH]c(=O)c(C#N)c(-c3ccc(Cl)cc3)c2C1`, the GI50 in the test on HOP-62, in the test on NCI-H460, in the test with U-251, in the test on RXF 393, in the test with K562 and in the test with OVCAR-4 was > 100 µM (inactive) each time. Besides, the GI50 in the test with MDA-MB-231 is > 100 µM (inactive); with MDA-N it was > 100 µM (inactive); in the test with BT-549, > 100 µM (inactive); with SR it was 18.4 µM (inactive); in the test on M14 it was > 100 µM (inactive); with UACC-257, > 100 µM (inactive). Moreover, the GI50 in the test with SN12C, with HCC 2998, in the test with SF-539, in the test with NCI-H23, with SK-MEL-28 and in the test with SF-268 was > 100 µM (inactive) throughout.

Turning to `O=C(c1ccccc1)n1[nH]c(=O)n(-c2ccc(Cl)cc2)c1=O`, the GI50 with HOP-62, with NCI-H460, in the test with U-251, in the test with RXF 393, with K562 and with OVCAR-4 was > 100 µM (inactive) each time. The GI50 with MDA-MB-231, with MDA-N, with BT-549, in the test on SR, in the test with UO-31 and with M14 was > 100 µM (inactive) in each case. Also, the GI50 in the test with UACC-257, in the test with SN12C, in the test with HCC 2998, in the test on NCI-H23, in the test with SNB-75 and with SK-MEL-28 was > 100 µM (inactive) throughout. Also, the GI50 in the test with SF-268 was > 100 µM (inactive).

As to `COc1cc2c(cc1OC)C1CN3CCCC3C(O)C1c1cc(OC)c(OC)cc1-2` (centres undefined), the GI50 was 40.2 µM (inactive) in the test with HOP-62; > 100 µM (inactive) in the test on NCI-H460; > 100 µM (inactive) with U-251; 82.8 µM (inactive) in the test with RXF 393; > 100 µM (inactive) in the test with K562; > 100 µM (inactive) with OVCAR-4. The GI50 in the test on MDA-MB-231, with MDA-N, in the test on BT-549, in the test on SR, in the test on UO-31 and in the test with M14 was > 100 µM (inactive) throughout. Moreover, the GI50 with UACC-257, in the test on SN12C, with HCC 2998, in the test with NCI-H23, in the test with SK-MEL-28 and in the test on SF-268 was > 100 µM (inactive) throughout.

For `COC(=O)CCCC(=O)NC1=C(NCc2ccccc2)C(=O)c2ccccc2C1=O`, the GI50 in the test on NCI-H460 was 52 µM (inactive); in the test with U-251 it was > 100 µM (inactive); in the test with K562, 45.6 µM (inactive); with OVCAR-4, 47.9 µM (inactive); with MDA-MB-231 it was 50.1 µM (inactive); with MDA-N it was 41.4 µM (inactive). Also, the GI50 with BT-549 was 28.6 µM (inactive); in the test with SR it was 46.5 µM (inactive); in the test on UO-31, > 100 µM (inactive); in the test with M14, 29.6 µM (inactive); in the test with UACC-257, 29.7 µM (inactive); with SN12C it was 52.5 µM (inactive). The GI50 with HCC 2998 was > 100 µM (inactive); with SF-539, 36.4 µM (inactive); in the test on NCI-H23 it was 53.2 µM (inactive); in the test on SNB-75 it was > 100 µM (inactive); in the test on SK-MEL-28, > 100 µM (inactive); in the test with SF-268, > 100 µM (inactive).

With `O=C(Oc1c(Br)cc(Br)cc1C(=O)Oc1ccccc1)C(=O)Oc1c(Br)cc(Br)cc1C(=O)Oc1ccccc1`, the GI50 with HOP-62 was 16.2 µM (inactive); in the test on NCI-H460, > 100 µM (inactive); in the test on U-251 it was 13.1 µM (inactive); in the test on RXF 393, 12.9 µM (inactive); in the test with K562, 12.7 µM (inactive); in the test with MDA-MB-231, 12.1 µM (inactive). For the same compound, the GI50 in the test on MDA-N is 27.5 µM (inactive); with BT-549, 18.5 µM (inactive); in the test with SR it was 18.5 µM (inactive); in the test with UO-31, 16 µM (inactive); in the test with M14 it was 34.1 µM (inactive); in the test with UACC-257 it was 39 µM (inactive). Also, the GI50 in the test with SN12C is 30.3 µM (inactive); in the test on HCC 2998, 31 µM (inactive); with SF-539, 19.7 µM (inactive); in the test with NCI-H23 it was 0.621 µM (active); in the test with SK-MEL-28 it was 28.7 µM (inactive); with SF-268 it was 29 µM (inactive).

Consider `Cc1cc(Cl)ccc1NC(=O)/C(Cl)=C(/Cl)C(=O)O`, for which the GI50 in the test with HOP-62 was 22.2 µM (inactive); in the test with NCI-H460, > 100 µM (inactive); in the test with U-251 it was 19 µM (inactive); in the test on RXF 393 it was 19.6 µM (inactive); in the test with K562, 31.8 µM (inactive); in the test on MDA-MB-231, 21.7 µM (inactive). Moreover, the GI50 was 24.1 µM (inactive) in the test with MDA-N; 19.1 µM (inactive) with BT-549; 15.1 µM (inactive) with SR; > 100 µM (inactive) in the test with UO-31; 28.4 µM (inactive) with M14; 19.7 µM (inactive) in the test with UACC-257. Also, the GI50 was 18.1 µM (inactive) in the test with SN12C; 17.9 µM (inactive) in the test with HCC 2998; 23 µM (inactive) in the test with SF-539; 29.3 µM (inactive) in the test with NCI-H23; 29.9 µM (inactive) with SNB-75; 22.1 µM (inactive) in the test on SK-MEL-28. The GI50 in the test with SF-268 is 52.8 µM (inactive).

On to `COc1c(O)cc2ccnc3c2c1N(C)C=C3`, for which the GI50 in the test with HOP-62 was > 100 µM (inactive); in the test on NCI-H460, 64.6 µM (inactive); in the test with U-251, > 100 µM (inactive); in the test on RXF 393, > 100 µM (inactive); in the test on K562, > 100 µM (inactive); in the test on OVCAR-4, > 100 µM (inactive). Besides, the GI50 is > 100 µM (inactive) in the test on MDA-MB-231; > 100 µM (inactive) with MDA-N; > 100 µM (inactive) in the test on BT-549; 10.1 µM (inactive) in the test on SR; 39.4 µM (inactive) with UO-31; > 100 µM (inactive) in the test with M14. Moreover, the GI50 in the test on UACC-257 is > 100 µM (inactive); in the test on SN12C, 67.6 µM (inactive); in the test with HCC 2998, > 100 µM (inactive); in the test with NCI-H23 it was > 100 µM (inactive); in the test on SNB-75 it was > 100 µM (inactive); in the test on SK-MEL-28, > 100 µM (inactive). In addition, in the test with SF-268, the GI50 is > 100 µM (inactive).

As for `CCOC(=O)C1C[C@H]2CO[C@H](c3ccccc3)N2C1=O` (some centres undefined), the GI50 in the test on NCI-H460, in the test on U-251, with RXF 393, in the test on K562, with OVCAR-4 and in the test with MDA-MB-231 was > 100 µM (inactive) in each case. For the same compound, the GI50 in the test on MDA-N, in the test on BT-549, with SR, in the test on UO-31, in the test with M14 and in the test on UACC-257 was > 100 µM (inactive) throughout. Besides, the GI50 was > 100 µM (inactive) with SN12C; 73.8 µM (inactive) in the test with HCC 2998; > 100 µM (inactive) with SF-539; > 100 µM (inactive) in the test on NCI-H23; > 100 µM (inactive) with SNB-75; > 100 µM (inactive) with SK-MEL-28. For the same compound, in the test on SF-268, the GI50 was > 100 µM (inactive).

Regarding `Cc1cc2c(c(S(=O)(=O)c3ccccc3[N+](=O)[O-])c1)NCCC2`, the GI50 with HOP-62 is > 100 µM (inactive); in the test with NCI-H460 it was 66.7 µM (inactive); in the test with U-251, 83.9 µM (inactive); in the test with RXF 393, > 100 µM (inactive); in the test with OVCAR-4 it was 23.5 µM (inactive); with MDA-MB-231 it was > 100 µM (inactive). The GI50 was 34.8 µM (inactive) with MDA-N; 19.1 µM (inactive) with BT-549; > 100 µM (inactive) with SR; 37.4 µM (inactive) in the test on UO-31; 69.8 µM (inactive) in the test with M14; 76.4 µM (inactive) in the test on SN12C. In addition, the GI50 in the test on HCC 2998 is 91.2 µM (inactive); with SF-539 it was > 100 µM (inactive); in the test on NCI-H23 it was 59.7 µM (inactive); in the test with SNB-75, > 100 µM (inactive); in the test on SK-MEL-28, 54 µM (inactive); in the test with SF-268, 83.6 µM (inactive).

For the compound `NNC(=O)CSc1nnc(CCCCCCCCc2nnc(SCC(=O)NN)o2)o1`, the GI50 in the test with HOP-62, in the test on NCI-H460, in the test with U-251, in the test on RXF 393, with K562 and in the test with OVCAR-4 was > 100 µM (inactive) throughout. Moreover, the GI50 in the test with MDA-MB-231, with MDA-N, in the test on BT-549, in the test on SR, with UO-31 and in the test on M14 was > 100 µM (inactive) in each case. Further, the GI50 in the test with UACC-257, with SN12C, with HCC 2998, with NCI-H23, in the test on SNB-75 and in the test on SK-MEL-28 was > 100 µM (inactive) each time. Also, in the test with SF-268, the GI50 is > 100 µM (inactive).
